The supplement of paper PMC10331698
± gives the standard deviation of the averaged measurements.

How the values were obtained:
Test in all cases: level (log10 ratio to DMSO vehicle control); higher = higher biomarker level / cell amount than vehicle control
Settings in all cases: in DMSO
[1] = compound: C=CC(=O)OCC(F)(F)C(F)(F)C(F)(F)C(F)(F)C(F)(F)C(F)(F)C(F)(F)F [1H,1H-Perfluorooctyl acrylate]
Experimental: (§1)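 BioMAP Diversity Plus panel of 12 human primary cell co-culture systems (3C, 4H, LPS, SAg, BT, BF4T, BE3C, CASM3C, HDF3CGF, KF3CT, MyoF, Mphg). Compounds were added 1 h before stimulation and left for 24 h (MyoF 48 h; BT 72 h for soluble read-outs or 6 d for IgG). Biomarkers were read by ELISA, cytotoxicity by SRB, PBMC viability and proliferation by Alamar Blue. Each well value was divided by the mean of 8 DMSO control wells on the same plate and log10 transformed; duplicate blinded samples were tested at 4 concentrations.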

[2] = compound: C=C(C)C(=O)OCCC(F)(F)C(F)(F)C(F)(F)C(F)(F)C(F)(C(F)(F)F)C(F)(F)F [(Perfluoro-5-methylhexyl)ethyl 2-methylprop-2-enoate]
Experimental: as §1

[3] = compound: O=C(O)C(F)(F)C(F)(F)C(F)(F)C(F)(F)C(F)(F)C(F)(F)C(F)(F)C(F)F [9-H-Perfluorononanoic acid]
Experimental: as §1

[4] = compound: O=C(O)C(F)(F)OC(F)(F)C(F)(F)OC(F)(F)C(=O)O [Perfluoro-3,6-dioxaoctane-1,8-dioic acid]
Experimental: as §1

[5] = compound: O=S(=O)(O)C(F)(F)C(F)(F)C(F)(F)C(F)(F)C(F)(F)C(F)(F)F [Perfluorohexanesulfonic acid]
Experimental: as §1

[6] = compound: C=CC(F)(F)C(F)(F)C(F)(F)C(F)(F)C(F)(F)C(F)(F)C(F)(F)C(F)(F)C=C [1,8-Divinylperfluorooctane]
Experimental: as §1

Pentafluoropropionamide = compound: NC(=O)C(F)(F)C(F)(F)F [Pentafluoropropionamide]
Experimental: as §1

HDF3CGF:SRB
level (log10) ([1]; 6700 nM): -0.003 ± 0.0099
level (log10) ([1]; 20000 nM): 0.0015 ± 0.025
level (log10) ([1]; 60000 nM): 0.0115 ± 0.0092
level (log10) ([2]; 6700 nM): 0.0055 ± 0.0092
level (log10) ([2]; 20000 nM): 0.008 ± 0.0028
level (log10) ([3]; 6700 nM): 0.022 ± 0.023
level (log10) ([3]; 20000 nM): 0.0825 ± 0.03
level (log10) ([3]; 60000 nM): 0.148 ± 0.034
level (log10) ([4]; 6700 nM): 0.009 ± 0.041
level (log10) ([4]; 20000 nM): -0.0035 ± 0.015
level (log10) ([4]; 60000 nM): -0.0125 ± 0.012
level (log10) ([5]; 6700 nM): 0.017 ± 0.011
level (log10) ([5]; 20000 nM): 0.0145 ± 0.022
level (log10) ([5]; 60000 nM): -0.009 ± 0.0085
level (log10) ([6]; 6700 nM): 0.025 ± 0.051
level (log10) ([6]; 20000 nM): 0.069 ± 0.14
level (log10) (Pentafluoropropionamide; 6700 nM): -0.0105 ± 0.011
level (log10) (Pentafluoropropionamide; 20000 nM): 0.0265 ± 0.079
level (log10) (Pentafluoropropionamide; 60000 nM): 0.0445 ± 0.086

3C:CD142/Tissue Factor
level (log10) ([1]; 6700 nM): 0.001 ± 0.0057
level (log10) ([1]; 20000 nM): 0 ± 0.0014
level (log10) ([1]; 60000 nM): -0.0165 ± 0.0078
level (log10) ([2]; 6700 nM): 0.0205 ± 0.015
level (log10) ([2]; 20000 nM): -0.0295 ± 0.046
level (log10) ([3]; 6700 nM): 0.035 ± 0.0028
level (log10) ([3]; 20000 nM): 0.027 ± 0.0042
level (log10) ([3]; 60000 nM): 0.059 ± 0.023
level (log10) ([4]; 6700 nM): -0.004 ± 0.042
level (log10) ([4]; 20000 nM): -0.0155 ± 0.013
level (log10) ([4]; 60000 nM): -0.0025 ± 0.059
level (log10) ([5]; 6700 nM): 0.014 ± 0.023
level (log10) ([5]; 20000 nM): 0.0105 ± 0.025
level (log10) ([5]; 60000 nM): 0.0545 ± 0.011
level (log10) ([6]; 6700 nM): -0.068 ± 0.041
level (log10) ([6]; 20000 nM): -0.0205 ± 0.061
level (log10) (Pentafluoropropionamide; 6700 nM): -0.0305 ± 0.032
level (log10) (Pentafluoropropionamide; 20000 nM): -0.0575 ± 0.019
level (log10) (Pentafluoropropionamide; 60000 nM): -0.0205 ± 0.015

HDF3CGF:CXCL11/I-TAC
level (log10) ([1]; 6700 nM): -0.017 ± 0.011
level (log10) ([1]; 20000 nM): -0.0275 ± 0.037
level (log10) ([1]; 60000 nM): -0.063 ± 0.011
level (log10) ([2]; 6700 nM): -0.013 ± 0.0014
level (log10) ([2]; 20000 nM): -0.0155 ± 0.013
level (log10) ([3]; 6700 nM): -0.059 ± 0.0085
level (log10) ([3]; 20000 nM): -0.078 ± 0.0099
level (log10) ([3]; 60000 nM): -0.09 ± 0.021
level (log10) ([4]; 6700 nM): 0.0105 ± 0.011
level (log10) ([4]; 20000 nM): 0.0235 ± 0.012
level (log10) ([4]; 60000 nM): 0.012 ± 0.0042
level (log10) ([5]; 6700 nM): 0.01
level (log10) ([5]; 20000 nM): -0.004 ± 0.0099
level (log10) ([5]; 60000 nM): -0.004 ± 0.021
level (log10) ([6]; 6700 nM): 0.0135 ± 0.013
level (log10) ([6]; 20000 nM): 0.016 ± 0.037
level (log10) (Pentafluoropropionamide; 6700 nM): 0.0135 ± 0.0035
level (log10) (Pentafluoropropionamide; 20000 nM): 0.0195 ± 0.018
level (log10) (Pentafluoropropionamide; 60000 nM): 0.022 ± 0.024

KF3CT:TIMP-2
level (log10) ([1]; 6700 nM): -0.0075 ± 0.00071
level (log10) ([1]; 20000 nM): -0.0155 ± 0.018
level (log10) ([1]; 60000 nM): -0.0075 ± 0.032
level (log10) ([2]; 6700 nM): -0.016 ± 0.03
level (log10) ([2]; 20000 nM): -0.041 ± 0.052
level (log10) ([3]; 6700 nM): -0.0055 ± 0.03
level (log10) ([3]; 20000 nM): -0.01 ± 0.014
level (log10) ([3]; 60000 nM): 0.016 ± 0.017
level (log10) ([4]; 6700 nM): -0.0075 ± 0.042
level (log10) ([4]; 20000 nM): -0.0015 ± 0.04
level (log10) ([4]; 60000 nM): 0.0055 ± 0.011
level (log10) ([5]; 6700 nM): 0.0005 ± 0.0064
level (log10) ([5]; 20000 nM): 0.012 ± 0.0042
level (log10) ([5]; 60000 nM): 0.019 ± 0.013
level (log10) ([6]; 6700 nM): -0.021 ± 0.021
level (log10) ([6]; 20000 nM): -0.0205 ± 0.032
level (log10) (Pentafluoropropionamide; 6700 nM): 0.0005 ± 0.026
level (log10) (Pentafluoropropionamide; 20000 nM): 0.004 ± 0.027
level (log10) (Pentafluoropropionamide; 60000 nM): 0.0305 ± 0.013

lMphg:sIL-10
level (log10) ([1]; 6700 nM): 0.018 ± 0.02
level (log10) ([1]; 20000 nM): -0.023 ± 0.05
level (log10) ([1]; 60000 nM): -0.0565 ± 0.042
level (log10) ([2]; 6700 nM): 0.0215 ± 0.029
level (log10) ([2]; 20000 nM): -0.0195 ± 0.12
level (log10) ([3]; 6700 nM): -0.0465 ± 0.00071
level (log10) ([3]; 20000 nM): -0.0225 ± 0.04
level (log10) ([3]; 60000 nM): -0.642 ± 0.04
level (log10) ([4]; 6700 nM): -0.0425 ± 0.011
level (log10) ([4]; 20000 nM): -0.0615 ± 0.036
level (log10) ([4]; 60000 nM): -0.058 ± 0.055
level (log10) ([5]; 6700 nM): -0.0345 ± 0.061
level (log10) ([5]; 20000 nM): -0.073 ± 0.1
level (log10) ([5]; 60000 nM): -0.239 ± 0.025
level (log10) ([6]; 6700 nM): -0.053 ± 0.085
level (log10) ([6]; 20000 nM): -0.0135 ± 0.03
level (log10) (Pentafluoropropionamide; 6700 nM): -0.0095 ± 0.044
level (log10) (Pentafluoropropionamide; 20000 nM): -0.01 ± 0.028
level (log10) (Pentafluoropropionamide; 60000 nM): -0.0635 ± 0.12

BE3C:uPA
level (log10) ([1]; 6700 nM): -0.003 ± 0.0099
level (log10) ([1]; 20000 nM): 0.005 ± 0.0099
level (log10) ([1]; 60000 nM): 0.0055 ± 0.00071
level (log10) ([2]; 6700 nM): -0.001 ± 0.016
level (log10) ([2]; 20000 nM): -0.0005 ± 0.016
level (log10) ([3]; 6700 nM): 0.0085 ± 0.0021
level (log10) ([3]; 20000 nM): 0.003 ± 0.014
level (log10) ([3]; 60000 nM): -0.002 ± 0.0028
level (log10) ([4]; 6700 nM): -0.0145 ± 0.005
level (log10) ([4]; 20000 nM): -0.013 ± 0.014
level (log10) ([4]; 60000 nM): -0.0025 ± 0.0064
level (log10) ([5]; 6700 nM): 0.0145 ± 0.016
level (log10) ([5]; 20000 nM): -0.0005 ± 0.028
level (log10) ([5]; 60000 nM): 0.0115 ± 0.019
level (log10) ([6]; 6700 nM): -0.0245 ± 0.0064
level (log10) ([6]; 20000 nM): -0.0315 ± 0.0078
level (log10) (Pentafluoropropionamide; 6700 nM): -0.0305 ± 0.028
level (log10) (Pentafluoropropionamide; 20000 nM): -0.0265 ± 0.015
level (log10) (Pentafluoropropionamide; 60000 nM): -0.011 ± 0.014

MyoF:Collagen IV
level (log10) ([1]; 6700 nM): 0.034 ± 0.054
level (log10) ([1]; 20000 nM): 0.03 ± 0.035
level (log10) ([1]; 60000 nM): 0.062 ± 0.071
level (log10) ([2]; 6700 nM): 0.025 ± 0.02
level (log10) ([2]; 20000 nM): 0.058 ± 0.1
level (log10) ([3]; 6700 nM): 0.039 ± 0.037
level (log10) ([3]; 20000 nM): 0.0365 ± 0.018
level (log10) ([3]; 60000 nM): 0.082 ± 0.03
level (log10) ([4]; 6700 nM): -0.0165 ± 0.013
level (log10) ([4]; 20000 nM): -0.011 ± 0.031
level (log10) ([4]; 60000 nM): 0.0295 ± 0.00071
level (log10) ([5]; 6700 nM): -0.023 ± 0.018
level (log10) ([5]; 20000 nM): -0.0065 ± 0.032
level (log10) ([5]; 60000 nM): 0 ± 0.031
level (log10) ([6]; 6700 nM): -0.023 ± 0.0085
level (log10) ([6]; 20000 nM): 0.0115 ± 0.044
level (log10) (Pentafluoropropionamide; 6700 nM): -0.0295 ± 0.03
level (log10) (Pentafluoropropionamide; 20000 nM): -0.0275 ± 0.025
level (log10) (Pentafluoropropionamide; 60000 nM): -0.007 ± 0.051
